Data taken from article PMC9120017, “Inhibition mechanism of the chloride channel TMEM16A by the pore blocker 1PBC” (Nature Communications, 2022).
Read-outs that look alike come from different tables or passages of the source.

Target: T1, mouse TMEM16A mutant T539A (Mus musculus, UniProt Q8BHY3, T539A)
T1 construct: expressed in transfected cells; host or cells: HEK293T
T1 sequence (Q8BHY3 1-960 T539A): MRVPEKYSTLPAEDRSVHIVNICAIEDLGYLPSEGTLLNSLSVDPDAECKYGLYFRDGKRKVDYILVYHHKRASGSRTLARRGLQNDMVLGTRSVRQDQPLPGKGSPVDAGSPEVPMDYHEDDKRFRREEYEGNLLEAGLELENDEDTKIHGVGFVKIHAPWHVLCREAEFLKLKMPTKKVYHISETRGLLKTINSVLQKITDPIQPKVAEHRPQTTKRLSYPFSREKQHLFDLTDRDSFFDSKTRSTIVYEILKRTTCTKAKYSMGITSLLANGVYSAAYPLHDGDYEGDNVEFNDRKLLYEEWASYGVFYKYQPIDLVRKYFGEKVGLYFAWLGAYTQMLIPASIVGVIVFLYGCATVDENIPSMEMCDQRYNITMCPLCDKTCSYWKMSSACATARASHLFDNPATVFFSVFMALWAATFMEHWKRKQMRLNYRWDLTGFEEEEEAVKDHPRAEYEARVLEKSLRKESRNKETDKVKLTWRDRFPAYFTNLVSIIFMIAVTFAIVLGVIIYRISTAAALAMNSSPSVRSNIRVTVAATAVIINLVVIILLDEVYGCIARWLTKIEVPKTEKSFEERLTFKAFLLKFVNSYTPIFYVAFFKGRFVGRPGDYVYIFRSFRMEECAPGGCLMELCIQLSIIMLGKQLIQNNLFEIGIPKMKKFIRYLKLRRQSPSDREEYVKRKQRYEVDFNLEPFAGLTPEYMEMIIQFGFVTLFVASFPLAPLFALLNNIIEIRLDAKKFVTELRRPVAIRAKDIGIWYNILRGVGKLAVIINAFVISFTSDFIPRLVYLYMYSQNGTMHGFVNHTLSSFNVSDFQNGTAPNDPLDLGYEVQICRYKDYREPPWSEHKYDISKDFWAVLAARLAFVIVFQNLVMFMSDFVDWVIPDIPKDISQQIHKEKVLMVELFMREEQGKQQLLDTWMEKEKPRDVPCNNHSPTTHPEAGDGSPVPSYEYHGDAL
Assay: Inside-out patch recording of 1PBC block, mutant T539A
Format: cell-based
Conditions: for remaining activity at 30 µM: 1PBC 30; for remaining activity at 30 µM / remaining activity at 100 µM: read-out: fraction of unblocked current; for remaining activity at 100 µM: 1PBC 100
Experimental: HEK293T cells (ATCC CRL-1573) were maintained in Dulbecco’s modified Eagle’s medium (DMEM; Sigma-Aldrich) supplemented with 10 U ml^−1 penicillin, 0.1 mg ml^−1 streptomycin (Sigma-Aldrich), 2 mM L-glutamine (Sigma-Aldrich), and 10% FBS (Sigma-Aldrich) in a humidified atmosphere containing 5% CO2 at 37 °C. HEK293S GnTI^− cells (ATCC CRL-3022) were maintained in HyClone HyCell TransFx-H medium (GE Healthcare) supplemented with 10 U ml^−1 penicillin, 0.1 mg ml^−1 streptomycin, 4 mM L-glutamine, 0.15% poloxamer 188 (Sigma-Aldrich), and 1% FBS in an atmosphere containing 5% CO2 at 185 rpm at 37 °C. The ac splice variant of mouse TMEM16A (UniProt ID: Q8BHY3), mouse TMEM16B (UniProt ID: Q8CFW1), or mouse TMEM16F (UniProt ID: Q6P9J9) bearing a 3C cleavage site, a Venus YFP, a Myc tag, and a Streptavidin-binding peptide (SBP) downstream of the open reading frame in a modified pcDNA3.1 vector (Invitrogen) were used as described previously[21],[31]. Mutations were introduced using a modified QuikChange method[58] and were verified by sequencing.
HEK293T cells were transfected with 3–4 μg DNA per 6 cm Petri dish using the calcium phosphate co-precipitation method and were used within 24–96 h after transfection. Recordings were performed on inside-out patches excised from HEK293T cells expressing the construct of interest. Patch pipettes were pulled from borosilicate glass capillaries (O.D. 1.5 mm, I.D. 0.86 mm, Sutter Instrument) and were fire-polished with a microforge (Narishige) before use. Pipette resistance was typically 3–8 MΩ when filled with the recording solutions detailed below. Seal resistance was typically 4 GΩ or higher. Voltage-clamp recordings were made using Axopatch 200B, Digidata 1550, and Clampex 10.7 (Molecular Devices). Analog signals were filtered with the in-built 4-pole Bessel filter at 10 kHz and were digitized at 20 kHz. Solution exchange was achieved using a gravity-fed system through a theta glass pipette mounted on an ultra-fast piezo-driven stepper (Siskiyou). […] All recordings were performed at 20 °C.
A symmetrical ionic condition was used throughout. Stock solution with Ca^2+-EGTA contained 150 mM NaCl, 5.99 mM Ca(OH)2, 5 mM EGTA, and 10 mM HEPES at pH 7.40. Stock solution with EGTA contained 150 mM NaCl, 5 mM EGTA, and 10 mM HEPES at pH 7.40. Free Ca^2+ concentrations were adjusted by mixing the stock solutions at the required ratios calculated using the WEBMAXC program (http://web.stanford.edu/~cpatton/webmaxcS.htm). Patch pipettes were filled with the stock solution with Ca^2+-EGTA, which has a free Ca^2+ concentration of 1 mM. 1PBC (ChemBridge) stock was reconstituted in anhydrous DMSO (Sigma-Aldrich) at 100 mM and stored at −20 °C. Working solutions with 1PBC were prepared by serial dilution. Unless otherwise stated, experiments were performed at a saturating Ca^2+ concentration as shown in Supplementary Table 1 and the primary data were corrected for current rundown as described previously[21],[25].
Concentration-response relations, obtained from the ratio of the I-V plots before and after the application of the blocker, were fitted to the Hill equation,1 I/Imax=1/1+IC50/[blocker]^h where I/Imax is the normalized current responses, IC50 defines the concentration at which inhibition is at its half-maximum, and h is the Hill coefficient.

Work on `N#Cc1c(C(F)(F)F)cc(O)n2c1nc1ccccc12` [1PBC] yielded a remaining activity at 30 µM (-60 mV) of 46.1%, a remaining activity at 30 µM (-80 mV) of 49.4% and a remaining activity at 30 µM (-100 mV) of 53.7%. The remaining activity at 30 µM (-120 mV) was 55.9%, the remaining activity at 30 µM (-140 mV) was 58.7% and the remaining activity at 100 µM (0 mV) was 14.3%. It also gave a remaining activity at 100 µM (20 mV) of 11.9%, a remaining activity at 100 µM (40 mV) of 11.3% and a remaining activity at 100 µM (60 mV) of 10%. It also gave a remaining activity at 100 µM (80 mV) of 8.95%, a remaining activity at 100 µM (100 mV) of 7.58% and a remaining activity at 100 µM (120 mV) of 8.07%. The remaining activity at 100 µM (140 mV) was 8.23%, the remaining activity at 100 µM (-20 mV) was 16.6% and the remaining activity at 100 µM (-40 mV) was 18.5%. For the same molecule, the remaining activity at 100 µM (-60 mV) was 21.3%, the remaining activity at 100 µM (-80 mV) was 25% and the remaining activity at 100 µM (-100 mV) was 28.2%. It also gave a remaining activity at 100 µM (-120 mV) of 30.6%, a remaining activity at 100 µM (-140 mV) of 34% and an IC50 (20 mV, 2 µM Ca2+) of 12.9 µM. The IC50 (40 mV, 2 µM Ca2+) was 11 µM, the IC50 (60 mV, 2 µM Ca2+) was 9.86 µM and the “log-fold IC50 (change of mutant vs WT)” value (80 mV) was 0.6239. It also gave an IC50 (80 mV, 2 µM Ca2+) of 9.02 µM, an IC50 (100 mV, 2 µM Ca2+) of 8.74 µM and an IC50 (120 mV, 2 µM Ca2+) of 8.83 µM. It also gave an IC50 (140 mV, 2 µM Ca2+) of 9.45 µM, an IC50 (-20 mV, 2 µM Ca2+) of 17.3 µM and an IC50 (-40 mV, 2 µM Ca2+) of 20.5 µM. For the same molecule, the IC50 (-60 mV, 2 µM Ca2+) was 24.4 µM, the IC50 (-80 mV, 2 µM Ca2+) was 28.9 µM and the IC50 (-100 mV, 2 µM Ca2+) was 34.3 µM. It also gave an IC50 (-120 mV, 2 µM Ca2+) of 38.6 µM, an IC50 (-140 mV, 2 µM Ca2+) of 44.4 µM and an IC50 (T539A, V 0 mV) of 14.9 µM. The IC50 (T539A, V 20 mV) was 12.9 µM, the IC50 (T539A, V 40 mV) was 11 µM and the IC50 (T539A, V 60 mV) was 9.86 µM. The IC50 (T539A, V 80 mV) was 9.02 µM, the IC50 (T539A, V 100 mV) was 8.74 µM and the IC50 (T539A, V 120 mV) was 8.83 µM. For the same molecule, the IC50 (T539A, V 140 mV) was 9.45 µM, the IC50 (T539A, V -20 mV) was 17.3 µM and the IC50 (T539A, V -40 mV) was 20.5 µM. For the same molecule, the IC50 (T539A, V -60 mV) was 24.4 µM, the IC50 (T539A, V -80 mV) was 28.9 µM and the IC50 (T539A, V -100 mV) was 34.3 µM. It also gave an IC50 (T539A, V -120 mV) of 38.6 µM and an IC50 (T539A, V -140 mV) of 44.4 µM.
